Data from US20110009387A1, “HISTONE H2AX (HH2AX) BIOMARKER FOR FTI SENSITIVITY” (priority 2007, published 2011).
One block for each compound: values may come before it.

Key:
sensitive cell lines = test: Western blot of phospho-histone H2Ax induction; type: cell-based; conditions: 72 hours, 1000 nM
Protocol: (§1) The induction of phospho-histone H2Ax was analyzed by comparing the cellular expression levels of the phosphoprotein following exposure of cells to both DMSO (blank) and lonafarnib. The levels were evaluated by western blot. The quantity of induced phosphoprotein was determined qualitatively and by using densitometric analysis of bands on the blot.
(§2) Western blot protein analysis. Cells were lysed in RIPA buffer (50 mM Tris-HCl, 50 mM NaCl, 1% NP40, 0.5% Na-deoxycholate, 1 mM EDTA, 2.5 mM Na3VO4, 20 mM beta-glycerol phosphate, and complete protease inhibitor) and cleared by centrifugation. Protein concentration was determined using BCA reagent. Samples were separated by 14% SDS-PAGE, transferred to polyvinylidene difluoride (PVDF) membrane, immunoblotted and detected by chemiluminescence using the ECL detection reagents. Polyclonal antibodies used: Histone H2Ax and phos-Histone H2Ax (ser-139) (Cell Signaling Technology, Inc.; Danvers, Mass.). Densitometry was analyzed utilizing Quantity One software (Bio-Rad; Hercules, Calif.). Cells that were analyzed for inducation of phospho-H2Ax by western blot analysis were initially plated on plastic and then treated for 72 hours with 1000 nM of the FTI.

MCF7 = test: Soft agar growth assay (colony area); type: cell-based, human; set-up: key to Cells designated sensitive (S) or resistant (R) to lonafarnib: sensitive (S); resistant (R); conditions: MCF7, breast
Protocol: (§3) Cells were grown in soft agar and the IC50 for lonafarnib was determined. Cells were designated sensitive (S) or resistant (R). The IC50 value was determined by comparing colony areas of the cell lines exposed to the various doses of FTI. IC50 values were calculated with the XLfit program (idbs; Guildford, United Kingdom).
(§4) Growth assays. Soft agar assays were performed in 6-well dishes by seeding 10,000-20,000 cells in each well. Cells were plated in top 0.35% low melting point agarose in DMEM:F12 with 10% fetal bovine serum over a bottom 0.6% agarose feeding layer. Cells were grown in the presence of lonafarnib for 14 days and colonies were stained with 1 mg/ml MIT (dimethylthiazol-diphenyl-terrazolium bromide) in PBS. The plates were scanned and the colony area was determined as the sum of the areas stained by MTT.

LNCap [1] = test: Soft agar growth assay (colony area); type: cell-based; set-up: key to Cells designated sensitive (S) or resistant (R) to lonafarnib: sensitive (S); resistant (R); conditions: prostate
Protocol: as §3, §4

MiaPaca [2] = test: Soft agar growth assay (colony area); type: cell-based; set-up: key to Cells designated sensitive (S) or resistant (R) to lonafarnib: sensitive (S); resistant (R); conditions: pancreas
Protocol: as §3, §4

DU145 [3] = test: Soft agar growth assay (colony area); type: cell-based; set-up: key to Cells designated sensitive (S) or resistant (R) to lonafarnib: sensitive (S); resistant (R); conditions: DU145, prostate
Protocol: as §3, §4

MDA435 = test: Soft agar growth assay (colony area); type: cell-based; set-up: key to Cells designated sensitive (S) or resistant (R) to lonafarnib: sensitive (S); resistant (R); conditions: MDA435, breast
Protocol: as §3, §4

AsPc1 [4] = test: Soft agar growth assay (colony area); type: cell-based; set-up: key to Cells designated sensitive (S) or resistant (R) to lonafarnib: sensitive (S); resistant (R); conditions: AsPc1, pancreas
Protocol: as §3, §4

TOV112D [5] = test: Soft agar growth assay (colony area); type: cell-based; set-up: key to Cells designated sensitive (S) or resistant (R) to lonafarnib: sensitive (S); resistant (R); conditions: ovarian
Protocol: as §3, §4

HT29 [6] = test: Soft agar growth assay (colony area); type: cell-based; set-up: key to Cells designated sensitive (S) or resistant (R) to lonafarnib: sensitive (S); resistant (R); conditions: HT29, colon
Protocol: as §3, §4

SKOV3 [7] = test: Soft agar growth assay (colony area); type: cell-based; set-up: key to Cells designated sensitive (S) or resistant (R) to lonafarnib: sensitive (S); resistant (R); conditions: SKOV3, ovarian
Protocol: as §3, §4

T47D [8] = test: Soft agar growth assay (colony area); type: cell-based; set-up: key to Cells designated sensitive (S) or resistant (R) to lonafarnib: sensitive (S); resistant (R); conditions: breast
Protocol: as §3, §4

A2780 [9] = test: Soft agar growth assay (colony area); type: cell-based; set-up: key to Cells designated sensitive (S) or resistant (R) to lonafarnib: sensitive (S); resistant (R); conditions: A2780, ovarian
Protocol: as §3, §4

SNB75 [10] = test: Soft agar growth assay (colony area); type: cell-based; set-up: key to Cells designated sensitive (S) or resistant (R) to lonafarnib: sensitive (S); resistant (R); conditions: SNB75, glioma
Protocol: as §3, §4

Panc1 [11] = test: Soft agar growth assay (colony area); type: cell-based; set-up: key to Cells designated sensitive (S) or resistant (R) to lonafarnib: sensitive (S); resistant (R); conditions: Panc1, pancreas
Protocol: as §3, §4

SNB19 [12] = test: Soft agar growth assay (colony area); type: cell-based; set-up: key to Cells designated sensitive (S) or resistant (R) to lonafarnib: sensitive (S); resistant (R); conditions: SNB19, glioma
Protocol: as §3, §4

Colo205 [13] = test: Soft agar growth assay (colony area); type: cell-based; set-up: key to Cells designated sensitive (S) or resistant (R) to lonafarnib: sensitive (S); resistant (R); conditions: Colo205, colon
Protocol: as §3, §4

DLD-1 [14] = test: Soft agar growth assay (colony area); type: cell-based; set-up: key to Cells designated sensitive (S) or resistant (R) to lonafarnib: sensitive (S); resistant (R); conditions: DLD-1, colon
Protocol: as §3, §4

LNCap [15] = test: Western blot of phospho-histone H2Ax induction; type: cell-based; conditions: 72 hours, 1000 nM FTI vs DMSO, densitometry
Protocol: as §1, §2

MiaPaca [16] = test: Western blot of phospho-histone H2Ax induction; type: cell-based; conditions: 72 hours, 1000 nM FTI vs DMSO, densitometry
Protocol: as §1, §2

DU145 [17] = test: Western blot of phospho-histone H2Ax induction; type: cell-based; conditions: 72 hours, 1000 nM FTI vs DMSO, densitometry
Protocol: as §1, §2

AsPc1 [18] = test: Western blot of phospho-histone H2Ax induction; type: cell-based; conditions: 72 hours, 1000 nM FTI vs DMSO, densitometry
Protocol: as §1, §2

MDA-435 = test: Western blot of phospho-histone H2Ax induction; type: cell-based; conditions: 72 hours, 1000 nM FTI vs DMSO, densitometry
Protocol: as §1, §2

TOV112D [19] = test: Western blot of phospho-histone H2Ax induction; type: cell-based; conditions: 72 hours, 1000 nM FTI vs DMSO, undetectable basal level
Protocol: as §1, §2

HT29 [20] = test: Western blot of phospho-histone H2Ax induction; type: cell-based; conditions: 72 hours, 1000 nM FTI vs DMSO, densitometry
Protocol: as §1, §2

SKOV3 [21] = test: Western blot of phospho-histone H2Ax induction; type: cell-based; conditions: 72 hours, 1000 nM FTI vs DMSO, densitometry
Protocol: as §1, §2

T47D [22] = test: Western blot of phospho-histone H2Ax induction; type: cell-based; conditions: 72 hours, 1000 nM FTI vs DMSO, densitometry
Protocol: as §1, §2

A2780 [23] = test: Western blot of phospho-histone H2Ax induction; type: cell-based; conditions: 72 hours, 1000 nM FTI vs DMSO, undetectable basal level
Protocol: as §1, §2

SNB75 [24] = test: Western blot of phospho-histone H2Ax induction; type: cell-based; conditions: 72 hours, 1000 nM FTI vs DMSO, densitometry
Protocol: as §1, §2

Panc1 [25] = test: Western blot of phospho-histone H2Ax induction; type: cell-based; conditions: 72 hours, 1000 nM FTI vs DMSO
Protocol: as §1, §2

SNB19 [26] = test: Western blot of phospho-histone H2Ax induction; type: cell-based; conditions: 72 hours, 1000 nM FTI vs DMSO, undetectable basal level
Protocol: as §1, §2

Colo205 [27] = test: Western blot of phospho-histone H2Ax induction; type: cell-based; conditions: 72 hours, 1000 nM FTI vs DMSO
Protocol: as §1, §2

DLD-1 [28] = test: Western blot of phospho-histone H2Ax induction; type: cell-based; conditions: 72 hours, 1000 nM FTI vs DMSO, densitometry
Protocol: as §1, §2

MCF-7 = test: Western blot of phospho-histone H2Ax induction; type: cell-based, human; conditions: 72 hours, 1000 nM FTI vs DMSO, undetectable basal level
Protocol: as §1, §2

[29] = Homo sapiens, 336 h, 14 days, read-out: Lonafarnib IC50

Compound: NC(=O)N1CCC(CC(=O)N2CCC(C3c4ncc(Br)cc4CCc4cc(Cl)cc(Br)c43)CC2)CC1 (single isomer, unassigned) [inactive enantiomer of lonafarnib]
phosphorylation of histone-H2Ax upon treatment (sensitive cell lines): does not induce

IC50 (MCF7; [29]): 10 nM
IC50 (LNCap [1]; [29]): 10 nM
IC50 (MiaPaca [2]; Homo sapiens, MIA PaCa-2, 336 h, 14 days, read-out: Lonafarnib IC50): 240 nM
IC50 (DU145 [3]; Homo sapiens, DU-145, 336 h, 14 days, read-out: Lonafarnib IC50): 1600 nM
IC50 (AsPc1 [4]; [29]): 1000 nM
IC50 (HT29 [6]; Homo sapiens, HT-29, 336 h, 14 days, read-out: Lonafarnib IC50): 940 nM
IC50 (SKOV3 [7]; Homo sapiens, SK-OV-3, 336 h, 14 days, read-out: Lonafarnib IC50): 2000 nM
IC50 (T47D [8]; [29]): 1800 nM
IC50 (A2780 [9]; [29]): 80 nM
IC50 (Panc1 [11]; Homo sapiens, PANC-1, 336 h, 14 days, read-out: Lonafarnib IC50): 440 nM
IC50 (Colo205 [13]; Homo sapiens, COLO 205, 336 h, 14 days, read-out: Lonafarnib IC50): 330 nM
IC50 (DLD-1 [14]; [29]): 320 nM
Compound: NC(=O)N1CCC(CC(=O)N2CCC([C@H]3c4ncc(Br)cc4CCc4cc(Cl)cc(Br)c43)CC2)CC1 [Lonafarnib, lonafarnib]
Cells designated sensitive (S) or resistant (R) to lonafarnib (MCF7): (S)
Cells designated sensitive (S) or resistant (R) to lonafarnib (LNCap [1]): (S)
Cells designated sensitive (S) or resistant (R) to lonafarnib (MiaPaca [2]): (S)
Cells designated sensitive (S) or resistant (R) to lonafarnib (DU145 [3]): (R)
IC50 (MDA435; 336 h, 14 days, read-out: Lonafarnib IC50): 350 nM
Cells designated sensitive (S) or resistant (R) to lonafarnib (MDA435): (S)
Cells designated sensitive (S) or resistant (R) to lonafarnib (AsPc1 [4]): (R)
IC50 (TOV112D [5]; [29]): 100 nM
Cells designated sensitive (S) or resistant (R) to lonafarnib (TOV112D [5]): (S)
Cells designated sensitive (S) or resistant (R) to lonafarnib (HT29 [6]): (R)
Cells designated sensitive (S) or resistant (R) to lonafarnib (SKOV3 [7]): (R)
Cells designated sensitive (S) or resistant (R) to lonafarnib (T47D [8]): (R)
Cells designated sensitive (S) or resistant (R) to lonafarnib (A2780 [9]): (S)
IC50 (SNB75 [10]; Homo sapiens, SNB-75, 336 h, 14 days, read-out: Lonafarnib IC50): > 3000 nM
Cells designated sensitive (S) or resistant (R) to lonafarnib (SNB75 [10]): (R)
Cells designated sensitive (S) or resistant (R) to lonafarnib (Panc1 [11]): (S)
IC50 (SNB19 [12]; Homo sapiens, SNB-19, 336 h, 14 days, read-out: Lonafarnib IC50): 230 nM
Cells designated sensitive (S) or resistant (R) to lonafarnib (SNB19 [12]): (S)
Cells designated sensitive (S) or resistant (R) to lonafarnib (Colo205 [13]): (S)
Cells designated sensitive (S) or resistant (R) to lonafarnib (DLD-1 [14]): (S)
induction of phospho-histone H2Ax (LNCap [15]): 2.2 fold
induction of phospho-histone H2Ax (MiaPaca [16]): 2.3 fold
induction of phospho-histone H2Ax (difference in OD values) (DU145 [17]): 1 fold
induction of phospho-histone H2Ax (difference in OD values) (AsPc1 [18]): 1 fold
induction of phospho-histone H2Ax (MDA-435): 6.5 fold
phospho-histone H2Ax expression upon treatment (TOV112D [19]): induced to detectable levels
induction of phospho-histone H2Ax (difference in OD values) (HT29 [20]): 1 fold
induction of phospho-histone H2Ax (difference in OD values) (SKOV3 [21]): 1 fold
induction of phospho-histone H2Ax (difference in OD values) (T47D [22]): 1 fold
phospho-histone H2Ax expression upon treatment (A2780 [23]): induced to detectable levels
induction of phospho-histone H2Ax (difference in OD values) (SNB75 [24]): 1 fold
induction of phos-histone H2Ax upon treatment (Panc1 [25]): no detectable induction
phospho-histone H2Ax expression upon treatment (SNB19 [26]): induced to detectable levels
induction of phos-histone H2Ax upon treatment (Colo205 [27]): no detectable induction
induction of phospho-histone H2Ax (DLD-1 [28]): 4.3 fold
phospho-histone H2Ax expression upon treatment (MCF-7): induced to detectable levels
